Laboratory results from US20070167329A1, “Plant growth regulation” (Bayer CropScience GmbH, priority 2003, published 2007).

System: maize (Zea mays, variety "LORENZO")
Experiment: Root growth assay, seed treatment, maize
Format: in vivo
Settings: 1 g a.i./ha, wet root weight 16 (±2) days post treatment
Excerpt: (§1) Plant roots are a highly proliferative tissue that allows an easy accessible, cheap and short term screening method for plant growth regulators. The results obtained can easily be transferred to the overall effects on a plant of plant growth regulators identified by such a system. By using this root assay one is enabled to determine the effect of a seed treatment to root growth and/or germination and/or changes in habitat of germinated plants in order to identify the possible use as a yield enhancer. Two seeds of wheat (Triticum aestivum, variety “TRISO”) or 1 seed of maize (Zea mays, variety “LORENZO”) per hole in a plastic tray which contains an architecture of 8×13 holes were placed on compost soil covered with sand. These seeds were treated with 100 μl/hole, which creates an application volume of approx. 1200 l/ha, of a compound solution at active ingredient rates equivalent to 100, 10 and 1 g a.i./ha of each compound using an robotic application system (Lizzy Spray Robotics). Six replicates in a row of each compound and concentration were done. The outer rim of the above defined plastic tray was untreated to avoid false negative effects and the middle row (No. 7) was used as untreated control. The treated seeds were allowed to dry for approx. 4 hours and subsequently covered with sand and watered. The trays were stored in climate chambers with 14 hours lighting at a temperature of 24° C. (±2) at daytime and 16° C. (±2) at night and relative humidity (rH) of 60% and daily watered. Assessments were done 16 (±2) days post treatment by counting the germinated plants and assessing the phytotoxicity symptoms and percentage. In addition, the roots were washed out and the shoots were cut directly above the seed and the wet roots were placed on dry paper towels for approximately 30 minutes and weighted afterwards. This procedure provides a similar grade of moisture to the roots so that a comparison of the weights is possible.
(§2) The effects observed concerning Root Growth given in column 2 (Root Growth of “100” is set as the standard) are directed to concentrations that are equivalent to 100, 10, 1 g a.i./ha, each.
In the case of Nc1nc(Nc2ccccc2)sc1C(=O)c1ccc(OC(F)F)cc1 [Compound 1.53], the “Root Growth (Root Growth of "100" is set as the standard)” value (“Root Growth” below) is reported as 91. With Nc1nc(Nc2cccc(C(F)(F)F)c2)sc1C(=O)c1ccc(OC(F)F)cc1 [Compound 1.58] the “Root Growth” value was 91. For Nc1nc(Nc2cccnc2)sc1C(=O)c1ccc(OC(F)F)cc1 [Compound 1.60, [4-Amino-2-(pyridin-3-yl-amino)-thiazol-5-yl]-(4-difluoromethoxyphenyl)-methanone], the “Root Growth” value was 191. For Nc1nc(Nc2ccccc2)sc1C(=O)c1cccs1 [Compound 1.79], the “Root Growth” value was 108.

Same assay, conditions: 10 g a.i./ha, wet root weight 16 (±2) days post treatment
For Nc1nc(Nc2ccccc2)sc1C(=O)c1ccc(OC(F)F)cc1 [Compound 1.53], the “Root Growth” value was 85. In the case of Nc1nc(Nc2cccc(C(F)(F)F)c2)sc1C(=O)c1ccc(OC(F)F)cc1 [Compound 1.58], the “Root Growth” value is reported as 107. For Nc1nc(Nc2cccnc2)sc1C(=O)c1ccc(OC(F)F)cc1 [Compound 1.60, [4-Amino-2-(pyridin-3-yl-amino)-thiazol-5-yl]-(4-difluoromethoxyphenyl)-methanone], the “Root Growth” value was 105. For Nc1nc(Nc2ccccc2)sc1C(=O)c1cccs1 [Compound 1.79], the “Root Growth” value was 116.

Same assay, conditions: 100 g a.i./ha, wet root weight 16 (±2) days post treatment
In the case of Nc1nc(Nc2ccccc2)sc1C(=O)c1ccc(OC(F)F)cc1 [Compound 1.53], the “Root Growth” value is reported as 108. For Nc1nc(Nc2cccc(C(F)(F)F)c2)sc1C(=O)c1ccc(OC(F)F)cc1 [Compound 1.58], the “Root Growth” value was 105. With Nc1nc(Nc2cccnc2)sc1C(=O)c1ccc(OC(F)F)cc1 [Compound 1.60, [4-Amino-2-(pyridin-3-yl-amino)-thiazol-5-yl]-(4-difluoromethoxyphenyl)-methanone] the “Root Growth” value was 109. With Nc1nc(Nc2ccccc2)sc1C(=O)c1cccs1 [Compound 1.79] the “Root Growth” value was 105.

Same assay, conditions: result in words
With Nc1nc(Nc2ccccc2)sc1C(=O)c1ccc(OC(F)F)cc1 [Compound 1.53] the “effect as plant growth regulator in maize” value (from here on “effect … in maize”) was “superior effects”. With Nc1nc(Nc2cccc(C(F)(F)F)c2)sc1C(=O)c1ccc(OC(F)F)cc1 [Compound 1.58] the “effect … in maize” value was “superior effects”. For Nc1nc(Nc2cccnc2)sc1C(=O)c1ccc(OC(F)F)cc1 [Compound 1.60, [4-Amino-2-(pyridin-3-yl-amino)-thiazol-5-yl]-(4-difluoromethoxyphenyl)-methanone], the “effect … in maize” value was “superior effect”. With Nc1nc(Nc2ccccc2)sc1C(=O)c1cccs1 [Compound 1.79] the “effect … in maize” value was “superior effect”.

System: wheat (Triticum aestivum, variety "TRISO")
Experiment: Root growth assay, seed treatment, wheat
Format: in vivo
Set-up: key to Root Growth (Root Growth of "100" is set as the standard): relative root growth; 100 = standard (untreated control)
Settings: 1 g a.i./ha, wet root weight 16 (±2) days post treatment
Excerpt: as §1, §2
With Nc1nc(Nc2ccccc2)sc1C(=O)c1ccc(OC(F)F)cc1 [Compound 1.53] the “Root Growth” value was 125. In the case of Nc1nc(Nc2cccc(C(F)(F)F)c2)sc1C(=O)c1ccc(OC(F)F)cc1 [Compound 1.58], the “Root Growth” value is reported as 123. For Nc1nc(Nc2cccnc2)sc1C(=O)c1ccc(OC(F)F)cc1 [Compound 1.60, [4-Amino-2-(pyridin-3-yl-amino)-thiazol-5-yl]-(4-difluoromethoxyphenyl)-methanone], the “Root Growth” value was 98. For Nc1nc(Nc2ccccc2)sc1C(=O)c1cccs1 [Compound 1.79], the “Root Growth” value was 88. For Nc1nc(Nc2ccccc2)sc1C(=O)c1cccnc1 [Compound 1.105], the “Root Growth” value was 72. With COc1ccc(Nc2nc(N)c(C(=O)c3cccnc3)s2)cc1 [Compound 1.106] the “Root Growth” value was 145. For N#Cc1ccc(Nc2nc(N)c(C(=O)c3cccnc3)s2)cc1 [Compound 1.108], the “Root Growth” value was 78. With CSc1ccc(Nc2nc(N)c(C(=O)c3cccnc3)s2)cc1 [Compound 1.117] the “Root Growth” value was 111. In the case of Nc1nc(Nc2ccc(OC(F)(F)F)cc2)sc1C(=O)c1cccnc1 [Compound 1.118], the “Root Growth” value is reported as 95. In the case of Nc1nc(NCC2CCCCC2)sc1C(=O)C(Cc1ccccc1)NC(=O)OCc1ccccc1 (stereo not shown) [Compound 1.139], the “Root Growth” value is reported as 130.

Same assay, conditions: 10 g a.i./ha, wet root weight 16 (±2) days post treatment
For Nc1nc(Nc2ccccc2)sc1C(=O)c1ccc(OC(F)F)cc1 [Compound 1.53], the “Root Growth” value was 107. In the case of Nc1nc(Nc2cccc(C(F)(F)F)c2)sc1C(=O)c1ccc(OC(F)F)cc1 [Compound 1.58], the “Root Growth” value is reported as 112. With Nc1nc(Nc2cccnc2)sc1C(=O)c1ccc(OC(F)F)cc1 [Compound 1.60, [4-Amino-2-(pyridin-3-yl-amino)-thiazol-5-yl]-(4-difluoromethoxyphenyl)-methanone] the “Root Growth” value was 57. In the case of Nc1nc(Nc2ccccc2)sc1C(=O)c1cccs1 [Compound 1.79], the “Root Growth” value is reported as 88. In the case of Nc1nc(Nc2ccccc2)sc1C(=O)c1cccnc1 [Compound 1.105], the “Root Growth” value is reported as 99. With COc1ccc(Nc2nc(N)c(C(=O)c3cccnc3)s2)cc1 [Compound 1.106] the “Root Growth” value was 99. For N#Cc1ccc(Nc2nc(N)c(C(=O)c3cccnc3)s2)cc1 [Compound 1.108], the “Root Growth” value was 95. In the case of CSc1ccc(Nc2nc(N)c(C(=O)c3cccnc3)s2)cc1 [Compound 1.117], the “Root Growth” value is reported as 126. For Nc1nc(Nc2ccc(OC(F)(F)F)cc2)sc1C(=O)c1cccnc1 [Compound 1.118], the “Root Growth” value was 122. In the case of Nc1nc(NCC2CCCCC2)sc1C(=O)C(Cc1ccccc1)NC(=O)OCc1ccccc1 (stereo not shown) [Compound 1.139], the “Root Growth” value is reported as 66.

Same assay, conditions: 100 g a.i./ha, wet root weight 16 (±2) days post treatment
In the case of Nc1nc(Nc2ccccc2)sc1C(=O)c1ccc(OC(F)F)cc1 [Compound 1.53], the “Root Growth” value is reported as 101. For Nc1nc(Nc2cccc(C(F)(F)F)c2)sc1C(=O)c1ccc(OC(F)F)cc1 [Compound 1.58], the “Root Growth” value was 103. In the case of Nc1nc(Nc2cccnc2)sc1C(=O)c1ccc(OC(F)F)cc1 [Compound 1.60, [4-Amino-2-(pyridin-3-yl-amino)-thiazol-5-yl]-(4-difluoromethoxyphenyl)-methanone], the “Root Growth” value is reported as 54. With Nc1nc(Nc2ccccc2)sc1C(=O)c1cccs1 [Compound 1.79] the “Root Growth” value was 73. With Nc1nc(Nc2ccccc2)sc1C(=O)c1cccnc1 [Compound 1.105] the “Root Growth” value was 123. For COc1ccc(Nc2nc(N)c(C(=O)c3cccnc3)s2)cc1 [Compound 1.106], the “Root Growth” value was 90. In the case of N#Cc1ccc(Nc2nc(N)c(C(=O)c3cccnc3)s2)cc1 [Compound 1.108], the “Root Growth” value is reported as 131. In the case of CSc1ccc(Nc2nc(N)c(C(=O)c3cccnc3)s2)cc1 [Compound 1.117], the “Root Growth” value is reported as 125. With Nc1nc(Nc2ccc(OC(F)(F)F)cc2)sc1C(=O)c1cccnc1 [Compound 1.118] the “Root Growth” value was 113. In the case of Nc1nc(NCC2CCCCC2)sc1C(=O)C(Cc1ccccc1)NC(=O)OCc1ccccc1 (stereo not shown) [Compound 1.139], the “Root Growth” value is reported as 120.

Same assay, conditions: result in words, at various/different concentrations
In the case of Nc1nc(Nc2ccccc2)sc1C(=O)c1ccc(OC(F)F)cc1 [Compound 1.53], the “effect as plant growth regulator in wheat” value (“effect … in wheat” for short) is reported as “superior effects”. With Nc1nc(Nc2cccc(C(F)(F)F)c2)sc1C(=O)c1ccc(OC(F)F)cc1 [Compound 1.58] the “effect … in wheat” value was “superior effects”. In the case of Nc1nc(Nc2ccccc2)sc1C(=O)c1cccnc1 [Compound 1.105], the “effect … in wheat” value is reported as “superior effect”. With COc1ccc(Nc2nc(N)c(C(=O)c3cccnc3)s2)cc1 [Compound 1.106] the “effect … in wheat” value was “superior effect”. For N#Cc1ccc(Nc2nc(N)c(C(=O)c3cccnc3)s2)cc1 [Compound 1.108], the “effect … in wheat” value was “superior effect”.

System: not given
Experiment: not given
Settings: not given
For Nc1nc(Nc2cccnc2)sc1C(=O)c1ccc(OC(F)F)cc1 [Compound 1.60, [4-Amino-2-(pyridin-3-yl-amino)-thiazol-5-yl]-(4-difluoromethoxyphenyl)-methanone], the melting point was 143 °C.
